Results reported in patent US10426784B2, “Imidazodiazepine compound” (Astellas Pharma Inc., priority 2015, dated 2019).

Legend:
ddY male mouse = test: Y-maze test (spontaneous alternation behavior, MK-801-induced cognitive impairment); assay type: in vivo; details: single oral administration 1 hour before test, MK-801 0.15 mg/kg i.p.
Protocol: The improvement effect on cognitive impairment of the compound of the present invention was evaluated using Y-maze test that is an experimental system of spontaneous alternation behavior.
As the Y-maze, a maze in which three runways, each having a length of 40 cm, a height of 13 cm, a floor width of 3 cm, and an upper portion width of 10 cm, are attached to each other in a Y shape at an angle of 120°, was used. […]
After the aforementioned mouse was placed at the end of any runway in the Y-maze, the mouse was freely searched for eight minutes. The number of times the mouse has entered the runway was counted, and this counted number of times was set to the total entry number. The number of times the mouse has continuously entered three different runways (for example, when three arms were represented by a, b, and c, respectively, in the case where the order of entry of runways is abccbacab, it was counted by 4) was set to spontaneous alternation behavior number. Spontaneous alternation behavior rate is calculated by Calculation Equation: Spontaneous alternation behavior rate=[spontaneous alternation behavior number/(total entry number−2)]×100. The calculated spontaneous alternation behavior rate was set to an index of spontaneous alternation behavior.
The measured value was represented by average value f standard error for each group. […]

[1] = biological target: T1, human dopamine D1 receptor (Homo sapiens, UniProt P21728); test: Evaluation of positive allosteric modulating action (PAM action): left shift of dopamine dose-response curve (cAMP, TR-FRET); assay type: cell-based; details: human dopamine D1 receptor stably-expressing CHO cells
T1 construct: expressed in transfected cells
Protocol: Buffer solution for assay=αMEM containing 1 mM IBMX
Buffer solution for dilution=αMEM containing 1 mM IBMX and 0.8 mM ascorbic acid
Evaluation of Positive allosteric modulating action (PAM action)
The PAM action of the compound of the present invention was evaluated by the ratio of a left shift of a dopamine dose response curve.
The left shift means that the dopamine dose response curve, in which the logarithm of dose is set to abscissa (X axis) and the response (in this test, cAMP concentration) is set to ordinate (Y axis), is parallely shifted in the negative direction of the X axis by the addition of PAM.
The coding sequence of a human dopamine D1 receptor (Accession No.: NM_000794.3) was amplified by PCR, and was subcloned into a pEF-BOS vector. […]
To measure cAMP, LANCE Ultra cAMP kit (PerkinElmer Inc., LANCE is a registered trademark) was used. […] The plate was incubated at room temperature for 1 hour, and then the fluorescence intensity at 665 nm and 620 nm was measured (excitation wavelength: 320 nm, fluorescence wavelength: 665 nm, 620 nm) by TR-FRET method using a plate reader (2103 Multilabel Plate Reader (registered trademark Envision), PerkinElmer, Inc.). The fluorescence intensity ratio [(fluorescence intensity at 665 nm)/(fluorescence intensity at 620 nm)×10^4] of each well was calculated, and was used for analysis. […]

male Long Evans rats = test: Attentional set-shifting task (sub-chronic PCP rats); assay type: in vivo, rat; details: single oral administration after CD
Protocol: Attentional Set-Shifting Task
The compound of the present invention was evaluated by an attentional set-shifting task test.
The attentional set-shifting task test, as in WCST, is a test for measuring flexibility with respect to the change of a rule (clue). The effect on executive function disorder which is one of higher brain dysfunctions can be evaluated by this test.
After allowing the mouse to learn a task that food reward is obtained if there is a clue, in the case where the clue is shifted within a dimension (for example, the clue is changed from a form to another form), both normal animal and pathological animal having abnormality in the prefrontal cortex of the brain (hereinafter, referred to as “pathological animal”) can discriminate clues to obtain food reward. However, after allowing the mouse to learn a task of obtaining food reward by a clue, in the case where the clue is shifted to the outside of a dimension (for example, the clue is changed from a form to aroma), the normal animal can discriminate a clue of food, but the pathological animal cannot discriminate the clue of food. This test puts this behavior to practical use.
The following experiments were carried out with reference to European Journal of Neuroscience, 2005, vol. 21, p. 1070-1076, which was partially modified. […]

T1 sequence (P21728 whole entry): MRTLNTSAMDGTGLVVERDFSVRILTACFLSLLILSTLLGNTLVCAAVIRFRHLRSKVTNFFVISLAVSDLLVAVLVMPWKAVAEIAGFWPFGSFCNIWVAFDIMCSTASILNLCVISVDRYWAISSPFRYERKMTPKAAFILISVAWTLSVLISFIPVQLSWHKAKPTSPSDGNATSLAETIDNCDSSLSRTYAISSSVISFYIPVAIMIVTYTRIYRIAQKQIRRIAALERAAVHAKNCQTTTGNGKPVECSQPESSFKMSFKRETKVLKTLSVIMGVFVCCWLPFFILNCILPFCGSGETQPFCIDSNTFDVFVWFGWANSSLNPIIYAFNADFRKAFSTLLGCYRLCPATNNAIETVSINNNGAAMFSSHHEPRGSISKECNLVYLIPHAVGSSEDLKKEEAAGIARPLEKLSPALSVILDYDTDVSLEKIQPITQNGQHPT

O=C(Cn1c(=O)oc2cccc(F)c21)N1CCCn2cc(-c3ccc(C(F)(F)F)cc3)nc2C1 [Ex1, 4-fluoro-3-(2-oxo-2-{2-[4-(trifluoromethyl)phenyl]-6,7-dihydro-5H-imidazo[1,2-a][1,4]diazepin-8(9H)-yl}ethyl)-1,3-benzoxazol-2(3H)-one]
Dat2: minimum effective dose (significantly improving spontaneous alternation behavior) (ddY male mouse): 0.03 mg/kg
EC50 2-fold potentiation (test drug concentration by which the EC50 of dopamine is potentiated in 2-fold) [1]: 61 nM
Dat3: minimum effective dose (improving the executive function disorder, ED task) (male Long Evans rats): 0.003 mg/kg
